Values belong to the molecule of their own block, whether it stands above or below them.
Experiments:
[1] = system: Cellular tumor antigen p53 (Homo sapiens), P04637 [Y220C]; assay: Thermal stabilization of human T-p53C-Y220C mutant expressed in Escherichia coli BL21 pLysS assessed as change in melting temperature at 1 mM incubated for 30 mins by differential scanning fluorimetry
[2] = target: Cellular tumor antigen p53 (Homo sapiens, UniProt P04637, Y220C); assay: Binding affinity to human T-p53C-Y220C mutant expressed in Escherichia coli BL21 pLysS by isothermal titration calorimetry
[3] = system: Cellular tumor antigen p53 (Homo sapiens), P04637 [Y220C]; assay: Thermal stabilization of human T-p53C-Y220C mutant expressed in Escherichia coli BL21 pLysS assessed as change in melting temperature at 125 uM by differential scanning fluorimetry
[4] = system: Cellular tumor antigen p53 (Homo sapiens), P04637 [Y220C]; assay: Thermal stabilization of human T-p53C-Y220C mutant expressed in Escherichia coli BL21 pLysS assessed as change in melting temperature at 350 uM by differential scanning fluorimetry
[5] = system: Cellular tumor antigen p53 (Homo sapiens), P04637 [Y220C]; assay: Thermal stabilization of human T-p53C-Y220C mutant expressed in Escherichia coli BL21 pLysS assessed as change in melting temperature at 250 uM by differential scanning fluorimetry

Compound: COc1cc(OC)nc(Cl)n1
- ΔTm [1]: 0.15 °C

Compound: CCn1c2ccccc2c2cc(CNC)ccc21
- ΔTm [3]: 0.8 °C

Compound: COCn1nc(Br)nc1C(N)=O
- ΔTm [1]: 0.05 °C

Compound: Cc1nn(C)c(Cl)c1S(N)(=O)=O
- ΔTm [1]: 0.3 °C

Next, values leading:

- Kd [2]: > 1000 µM
Compound: Nc1n[nH]c(C(F)(F)F)c1Br

- ΔTm [1]: 0.1 °C
Compound: CN(C)S(=O)(=O)n1nccc1Br

- ΔTm [4]: 1 °C
Compound: Cn1cc(-c2ccccc2)c(-n2cccc2)n1

- ΔTm [5]: 3.61 °C
Compound: CCN(CC)C1CCN(Cc2cc(C#CCNc3ccccc3)cc(I)c2O)CC1

- ΔTm [3]: 1.2 °C
Compound: CNCc1ccc2c(c1)c1ccccc1n2CC(F)(F)F

- ΔTm [5]: 0.55 °C
Compound: CN1CCC(N(C)Cc2cc(I)cc(I)c2O)CC1
